In US20260092061A1, “COMPOUNDS FOR TARGETED PROTEIN DEGRADATION” (Amphista Therapeutics Limited, priority 2022, published 2026):
Like-named read-outs stand apart in the source and are kept apart here.

Key:
[1] = molecular target: T1, BRD4 (Homo sapiens, UniProt O60885); assay: BRD4 degradation, HiBiT-BRD4 HEK293 CRISPR CPM cells, NanoGlo Lytic Endpoint assay (Assay Protocol 1); format: cell-based; conditions: for Dmax: HEK293, Table 5; for DC50: Table 5
T1 construct: HiBiT-BRD4 HEK293 CRISPR CPM (Promega CS302312); host or cells: HEK293, CRISPR-edited (HiBiT at the BRD4 locus)
Protocol: HiBiT-BRD9 KI HEK293 (LgBiT) Cells (Promega CS3023412) were seeded at 8000 cells per well (38 μL) in sterile white bottom 384 well plates (Invitrogen 164610 or Greiner 781080) and incubated overnight at 37° C. with 5% CO2. The next day, compounds were prepared at 1000× final concentration in DMSO and diluted 1:100 in media (DMEM PAN Biotech P04-03550+10% FBS ATCC 302025). 4 μL compound was added to each well of the cell plate and incubated for 6 h at 37° C. with 5% CO2 BRD9 expression was quantified using the NanoGlo Lytic Endpoint assay (Promega N3050). The lytic buffer was equilibrated to room temperature for 10-15 min before lytic reagent was prepared by adding substrate (1:50) and LgBit protein (1:100) in lytic buffer. 40 μL lytic reagent mix was added to each well of the cel plate and plates were centrifuged briefly at ˜50g. Plates were incubated with shaking (350 RPM) for 12-24 min before reading using the LUM plus module of a BMG Pherastar FSX. Data was analysed using Dotmatics software and % BRD9 remaining was calculated by normalisation to average data from high and low control wells (DMSO treated cels and no cells respectively).
[…] was determined in line with the procedure as outlined above for BRD9, HiBiT-BRD4 HEK293 CRISPR CPM (Promega CS302312) were seeded at 8000 CPW (36 uL) in sterile white bottom 384 well plates (Invitrogen 164610 or Greiner 781080) and incubated overnight at 37° C. with 5% CO2.

[2] = molecular target: T2, BRD9 (Homo sapiens, UniProt Q9H8M2); assay: BRD9 degradation, HiBiT-BRD9 KI HEK293 (LgBiT) cells, NanoGlo Lytic Endpoint assay (Assay Protocol 1); format: cell-based; conditions: for Dmax: HEK293
T2 sequence (Q9H8M2 1-597): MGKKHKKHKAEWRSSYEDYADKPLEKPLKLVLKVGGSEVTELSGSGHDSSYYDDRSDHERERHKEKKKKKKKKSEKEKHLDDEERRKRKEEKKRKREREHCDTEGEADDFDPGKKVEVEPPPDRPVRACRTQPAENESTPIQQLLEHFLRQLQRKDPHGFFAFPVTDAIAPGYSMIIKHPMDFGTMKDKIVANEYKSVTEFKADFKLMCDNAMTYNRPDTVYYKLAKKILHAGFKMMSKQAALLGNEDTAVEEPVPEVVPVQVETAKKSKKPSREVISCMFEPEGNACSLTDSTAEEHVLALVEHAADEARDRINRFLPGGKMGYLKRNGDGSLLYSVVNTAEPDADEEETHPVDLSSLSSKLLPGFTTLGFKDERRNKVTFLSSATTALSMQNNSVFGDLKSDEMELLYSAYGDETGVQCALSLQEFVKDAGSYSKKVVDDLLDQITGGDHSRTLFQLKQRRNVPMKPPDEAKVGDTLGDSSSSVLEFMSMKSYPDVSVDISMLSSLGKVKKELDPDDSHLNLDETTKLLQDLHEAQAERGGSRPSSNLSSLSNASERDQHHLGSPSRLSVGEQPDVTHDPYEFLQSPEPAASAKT
In short: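 HiBiT-tagged BRD9 knock-in HEK293 (LgBiT) cells exposed to compounds for 6 h at 37 °C, 5% CO2. Residual BRD9 measured by HiBiT lytic luminescence. % BRD9 remaining normalised to DMSO-treated cells (high) and no-cell wells (low).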

[3] = Table 4, BRD9 degradation, determined according to Assay Protocol 1, read-out: Dmax^1
[4] = Table 5, assay protocol 1, read-out: BRD9 Dmax (%)
[5] = Table 4, BRD9 degradation, determined according to Assay Protocol 1, read-out: DC50^1
[6] = Table 5, assay protocol 1, read-out: BRD9 DC50

Dmax [1] [%]	DC50 [1] [nM]	Dmax [2, 3] [%]	Dmax [2, 4] [%]	DC50 [2, 5] [nM]	DC50 [2, 6] [nM]	SMILES
< 25	> 1000	> 70	70 to 75	25 to 200	10 to 25	COc1cc(-c2cn(C)c(=O)c(C)c2C)cc(OC)c1CN(C)C1CCN(C(=O)/C(C#N)=C/C(C)(C)C)CC1 [BRD9d, (E/Z)-2-(4-((2,6-dimethoxy-4-(1,4,5-trimethyl-6-oxo-1,6-dihydropyridin-3-yl)benzyl)(methyl)amino)piperidine-1-carbonyl)-4,4-dimethylpent-2-enenitrile]
> 75	25 to 1000			> 200		COc1cc(-c2cn(C)c(=O)c(C)c2C)cc(OC)c1CN1CCN(C(=O)/C(C#N)=C/C(C)(C)C)C2(CC2)C1 [BRD9e, (E/Z)-2-(7-(2,6-dimethoxy-4-(1,4,5-trimethyl-6-oxo-1,6-dihydropyridin-3-yl)benzyl)-4,7-diazaspiro[2,5]octane-4-carbonyl)-4,4-dimethylpent-2-enenitrile]
40 to 70	25 to 1000	> 70	> 75	< 25	< 1.25	COc1cc(-c2cn(C)c(=O)c(C)c2C)cc(OC)c1CN1CCN(C(=O)/C(C#N)=C/c2cccc(Br)n2)CC1 [BRD9h, (E/Z)-3-(6-bromopyridin-2-yl)-2-(4-(2,6-dimethoxy-4-(1,4,5-trimethyl-6-oxo-1,6-dihydropyridin-3-yl)benzyl)piperazine-1-carbonyl)acrylonitrile]
> 75	25 to 1000	50 to 70	40 to 70	> 200	25 to 1000	COc1cc(-c2cn(C)c(=O)c(C)c2C)cc(OC)c1CN1CCN(C(=O)/C(C#N)=C/C(C)(C)C)CC1 [BRD9a, (E/Z)-2-(4-(2,6-dimethoxy-4-(1,4,5-trimethyl-6-oxo-1,6-dihydropyridin-3-yl)benzyl)piperazine-1-carbonyl)-4,4-dimethylpent-2-enenitrile]
40 to 70	> 1000	50 to 70	40 to 70	25 to 200	25 to 1000	COc1cc(-c2cn(C)c(=O)c(C)c2C)cc(OC)c1CN1CC2CC1CN2C(=O)/C(C#N)=C/c1nccs1 (mixture of isomers) [BRD9i, (E/Z)-2-(5-(2,6-dimethoxy-4-(1,4,5-trimethyl-6-oxo-1,6-dihydropyridin-3-yl)benzyl)-2,5-diazabicyclo[2.2.1]heptane-2-carbonyl)-3-(thiazol-2-yl)acrylonitrile]
25 to 40	> 1000	30 to 50		25 to 200		COc1cc(-c2cn(C)c(=O)c(C)c2C)cc(OC)c1CN(C)C(=O)/C(C#N)=C/C(C)(C)C [BRD9ac, (E/Z)-2-cyano-N-(2,6-dimethoxy-4-(1,4,5-trimethyl-6-oxo-1,6-dihydropyridin-3-yl)benzyl)-N,4,4-trimethylpent-2-enamide]
> 75	25 to 1000	> 70	70 to 75	< 25	10 to 25	COc1cc(-c2cn(C)c(=O)c(C)c2C)cc(OC)c1CN1CC2CC1CN2C(=O)/C(C#N)=C/C(C)(C)C (mixture of isomers) [BRD9b]
> 75	25 to 1000	> 70		< 25		COc1cc(-c2cn(C)c(=O)c(C)c2C)cc(OC)c1CN1CCCN(C(=O)/C(C#N)=C/C(C)(C)C)CC1 [BRD9c, (E/Z)-2-(4-(2,6-dimethoxy-4-(1,4,5-trimethyl-6-oxo-1,6-dihydropyridin-3-yl)benzyl)-1,4-diazepane-1-carbonyl)-4,4-dimethylpent-2-enenitrile]

SMILES	Dmax [1] [%]	DC50 [1] [nM]	Dmax [2, 3] [%]	Dmax [2, 4] [%]	DC50 [2, 5] [nM]	DC50 [2, 6] [nM]
COc1cc(-c2cn(C)c(=O)c(C)c2C)cc(OC)c1CN1C2CC1CN(C(=O)/C(C#N)=C/c1cccc(Br)n1)C2 (mixture of isomers) [BRD9o, (E/Z)-3-(6-bromopyridin-2-yl)-2-(6-(2,6-dimethoxy-4-(1,4,5-trimethyl-6-oxo-1,6-dihydropyridin-3-yl)benzyl)-3,6-diazabicyclo[3.1.1]heptane-3-carbonyl)acrylonitrile]	25 to 40	> 1000	> 70	> 75		10 to 25
